According to patent publication US20090104159A1, “Vascular/Lymphatic Endothelial Cells” (priority 2005, published 2009):

Experiments:
[1] = tested on: hMAPCs; assay: Smooth muscle differentiation from hMAPCs; type: cell-based, human; conditions: hMAPCs treated for 6 days, Q-RT-PCR and immunofluorescence
Method: Smooth muscle differentiation: hMAPCs were plated at 1×10^3 cells/cm^2 in growth media (58% low-glucose DMEM (Gibco BRL), 40% MCDB-201 (Sigma), 2% fetal calf serum (FCS) (Biochrom), ITS+1 (Sigma), 10^−8 M dexamethasone (Sigma), 10^−8 M ascorbic acid 2-phosphate (Sigma), 100 U penicillin, 1000 U streptomycin (Gibco BRL) and 10 ng/mL each of PDGF-BB and EGF during 24 hours and then media was exchanged with the same basal media, without FCS, EGF but now with 10 ng/ml TGF-β1. Media was changed every 4-5 days.

[2] = tested on: rat MAPCs; assay: Endothelial differentiation of rat MAPCs (qRT-PCR); type: cell-based; conditions: Shh-antibody 0.5 micrograms/ml, cyclopamine 10 micromolar
Method: (§1) Glass 4-well chambers with were coated with 1 μg/ml human fibronectin (Sigma, F0895) for about 30 minutes to about 1 hour in the 37° C. incubator. The cells were collected (with the use of 0.05% trypsin), counted and resuspended at 120K/ml in mouse MAPC culture media (see above). The fibronectin was taken off and the cells were seeded (1 ml per well) (=Day 0). The cells were then incubated at 37° C., 5% O2 overnight. […] The media was changed 50% (using differentiation media) on day 4 and from then on, media changed 50% every other day. For rat cells, the differentiation media contained 2% serum.

[3] = tested on: hMAPCs; assay: Blocking of Patched and Notch pathways during hMAPC-EC differentiation; type: cell-based, human; conditions: hMAPC-ECs, 14 days, exogenous VEGF present, cyclopamine 5 μM; for expression of arterial EC markers Hey-2, EphrinB1 and EphrinB2: L-685,458 1 μM
Method: For real time RT-PCR Syber Green and Taq Man® methods were used as described (Hong et al., 2004). GAPDH was used as a housekeeping control. […] Primers used for both RT-PCR and real time PCR are shown below in Table 2.
Blocking of Patched and Notch pathways was performed using cyclopamine Watkins et al., 2003) (Biomol) at 5 μM (added every 4-5 days with media change) and 1 μM of esecretase inhibitor L-685,458 (Bachem) (Dahlqvist et al., 2003), respectively. Exogenous VEGF was present in the media for the blocking experiments (no exogenous Shh or Dll-4).

[4] = tested on: mouse MAPCs; assay: Endothelial differentiation of mouse MAPCs (qRT-PCR); type: cell-based; conditions: Shh-antibody 0.5 micrograms/ml, cyclopamine 10 micromolar
Method: as §1

[5] = tested on: murine MAPCs; conditions: about 10 ng/mL LIF added to PDGF-BB and EGF; cited from earlier work
[6] = tested on: human MAPCs; conditions: about 10 ng/mL LIF, till 25 cell doublings; cited from earlier work
[7] = tested on: hMAPC; assay: Lymphatic differentiation of hMAPC (real time PCR of Prox-1, Lyve-1, podoplanin); type: cell-based, human; conditions: compared with VEGF165 alone
Method: Arterial and/or venous differentiation was induced by addition of different combinations of the following growth factors: VEGF121 was used at 100 ng/ml and VEGF165 in different combinations with Delta-like 4 (Dll-4), Jagged-1, or Shh (all from R&DSystems) all at 100 ng/ml. Lymphatic differentiation was induced by addition of 100 ng/ml VEGF-C(R&DSystems) and 20 ng/ml bFGF (Sigma). Except for VEGF121, which was added alone, the other factors were added at the same time as VEGF165 in the various described combinations.
For real time RT-PCR Syber Green and Taq Man® methods were used as described (Hong et al., 2004). GAPDH was used as a housekeeping control. Results are presented as fold increase in comparison with the expression of the gene in undifferentiated cells or as percentage of positive control (cord blood derived venous and arterial ECs) (Jaffe et al., 1973; Neuhaus et al., 2003). Primers used for both RT-PCR and real time PCR are shown below in Table 2.

TGF-β1: growth factor, 10 ng/ml, used for smooth muscle differentiation
expression of SMC markers [1]: upregulated expression of SMC markers

CC1=C2C[C@H]3[C@@H](CC=C4C[C@@H](O)CC[C@@]43C)[C@@H]2CC[C@]12O[C@@H]1C[C@H](C)CN[C@H]1[C@H]2C [cyclopamine]
arterial component in the cell cultures [2]: decrease the arterial component
expression of the venous marker EphB4 [3]: slightly increased
expression of arterial EC markers Hey-2, EphrinB1 and EphrinB2 [3]: significantly decreased
arterial component in the cell cultures [4]: decrease the arterial component

LIF: leukemia inhibitory factor, culture supplement
cell growth [5]: significantly enhanced cell growth
short-term cell growth [6]: did not affect short-term cell growth

CC(C)C[C@H](NC(=O)[C@H](Cc1ccccc1)C[C@@H](O)[C@H](Cc1ccccc1)NC(=O)OC(C)(C)C)C(=O)N[C@@H](Cc1ccccc1)C(N)=O [γ-secretase inhibitor, L-685,458]
expression of arterial EC markers Hey-2, EphrinB1 and EphrinB2 [3]: even more pronounced attenuation

B1: VEGF-C: VEGF family growth factor (R&DSystems) used for lymphatic differentiation (protein, UniProt P49767 112-227, looked up)
Vascular endothelial growth …: AHYNTEILKSIDNEWRKTQCMPREVCIDVGKEFGVATNTFFKPPCVSVYRCGGCCNSEGLQCMNTSTSYLSKTLFEITVPLSQGPKPVTISFANHTSCRCMSKLDVYRQVHSIIRR
expression of lymphatic genes Prox-1, Lyve-1 and podoplanin [7]: does not enhance expression of these genes more than VEGF165 alone
